Source: patent EP0009728A1, “Hemostatic and platelet increasing agent containing alpha, beta-diaminopropionic acid and derivatives thereof” (Hokuriku Pharmaceutical Co.,Ltd, priority 1978, dated 1980)

Key:
[1] = Toxicity / neurotoxic activity (no method described)
Male mice = assay: Hemostatic test (bleeding time after wounding the tail vein); format: in vivo; settings: for rate of shortening bleeding time (shortened rate): summary in the description; for Bleeding Time (mean±S.E.) After Administration / Shortened Time (mean±S.E.) / Shortened Rate: Table 7; for Bleeding Time (mean±S.E.) After Administration / Shortened Time (mean±S.E.): mean of five tests, dose not stated; for Shortened Rate: shortened time relative to bleeding time before administration
Method: The present invention will be described in more detail with reference to the examples below, in which hemostatic test was performed as follows:
Male mice weighing 15 to 20 g. were intraperitoneously given with 0.5 ml. of a Locke solution. The mice-.were holded on a mouse holder 10 minutes after the administration, where the left vein of the tail at the middle of the tail (3 to 4 cm. from the root of the tail) was wounded with a knife to bleed. A filter paper was softly touched with the incised wound at the interval of 30 seconds and observation was made if blood was transferred onto the filter paper. Time until blood was not transferred onto the filter paper was measured and was made a bleeding time for control
Subsequently, a test compound dissolved in 0.5 ml. of a Locke solution was intraperitoneously administered to the same mice. The mice were holded onto a mouse holder 10 minutes after the administration. The right vein at the middle of the tail was wounded with a knife and a bleeding time was measured as in control described above.
A difference in bleeding time between the control and the test compound was made a shortened time for bleed-stopping.

platelet = assay: Platelet-increasing activity (platelet count, Fonio direct method); format: in vivo, mice; settings: for increase of the number of platelet versus control: 1 mg/0.5 ml./body i.p., 10 mins. after administration, versus Ringer-Locke control
Method: Platelet-Increasing Activity: • The compound having the formula shown in Example 1 was intraperitoneously administered to ddY female ten(10) mice as one grouping at the dose of 1 mg/0.5 ml./body in the form of a Ringer-Locke solution (1 mg. of the compound was dissolved in a Ringer-Locke solution). One eyeball was isolated 10 mins. after the administration to bleed. Blood was collected and the number of platelet was measured according to a direct method (Fonio original method), details of which are described in Dsch. Z. Schr. Chir., vol. 117, page 176 (1912).
As a control group, a Ringer-Locke solution was intraperitoneously administered at the dose of 0.5 ml/body for comparison.
Activity on Platelet-Increase: • The procedure similar to Example 3 was repeated except that the compound of Example 3 was used instead of the compound of Example 1.

For `N[C@H](CNC(=O)C(=O)O)C(=O)O` [Compound of Example 3, D-N-β-Oxalyl- α, β -diaminopropionic acid], the “neurotoxic side effect / neurotoxic activity (in words)” value [1] was “slighter in neurotoxic activity”, the “rate of shortening bleeding time (shortened rate)” value (“rate of shortening bleeding time” for short) (Male mice) was 35% and the “increase of the number of platelet versus control” value (platelet; ddY female mice) was ~24%. For the same molecule, the “Number of Platelet” value (platelet; Table 6, same procedure as Table 4 (1 mg/0.5 ml./body i.p., ddY female mice)) was 68.0 ± 7.35 10,000/mm^3.

For `N[C@@H](CNC(=O)C(=O)O)C(=O)O` [compound of Example 1, L-N-β-oxalyl-α,β-diaminopropionic acid], the “neurotoxic side effect / neurotoxic activity (in words)” value [1] was “does not exhibit neurotoxic side effect”, the “Bleeding Time (mean±S.E.) After Administration” value (Male mice) was 354 ± 45 s and the “Shortened Time (mean±S.E.)” value (Male mice) was 192 ± 36 s. The “Shortened Rate” value (Male mice) was 35.16%, the “rate of shortening bleeding time” value (Male mice) was 35% and the “increase of the number of platelet versus control” value (platelet; ddY female mice) was “about 30%”. For the same molecule, the “Number of Platelet” value (platelet; Table 4, 1 mg/0.5 ml./body i.p. in Ringer-Locke solution, ddY female mice, 10 per group, blood 10 mins. after administration) was 69.6 ± 6.31 10,000/mm^3.

For `NC[C@H](N)C(=O)O` [α,β-diaminopro-pionic acid, L-α, β-diaminopropionic acid], the “toxicity relative to that of the oxalyl derivative” value ([1]; compared with L-N-β-oxalyl-α, β-diaminopropionic acid) was “about 1/5”, the “Bleeding Time (mean±S.E.) After Administration” value (Male mice) was 306 ± 37 s and the “Shortened Time (mean±S.E.)” value (Male mice) was 240±33 p<0.05 second. The “Shortened Rate” value (Male mice) was 43.96%, the “rate of shortening bleeding time” value (Male mice) was 44% and the “increase of the number of platelet as compared to a control” value (platelet; dose not stated) was “about 17%”.
